Non-standard residues stand in square brackets, D forms with d. Residues, ends and D or L forms follow the SMILES beside them. pGlu = O=C1CC[C@@H](C(=O)O)N1
How the values were obtained:
[1] = test system: lymphocytes of patients suffering from rheumatoid arthritis; assay: Active E-rosette test, lymphocytes of rheumatoid arthritis patients; type: cell-based, human; details: for E-rosette forming activity, percentage amount of active lymphocytes: n = 4
Experimental: (§1) The active E-rosette test was carried out according to a modified method of Wybran et al [Wybran et al: New Engl. J. Med. 292, 475 (1975)] by the lymphocites of healthy and autoimmune patients (rheumatoid arthritis and systemic lupus erythematosus). To 50 μl of a lymphocyte cell suspension 10^-3 -10^-11 moles/lit. solutions of the test material were added and the mixture was incubated in an atmosphere containing 5.0% of carbon dioxide, at 37° C. for 60 minutes. Thereafter 50 μlit. of a 1% sheep erythrocite suspension were added and the mixture was centrifuged at 1000 r.p.m. for 10 minutes followed by shaking with a modified Gallenkampf-shaker (shaking time: 30 sec, stroke: 8 cm, shaking frequency: 65/min.). The rosettes were fixed with a 0.1% glutaric aldehyde (50 μlit. for each tube, 3 min.). Lymphocytes bonding more than three sheep erythrocite were counted under a microscope and 4×100 cells were evaluated. The separated lymphocytes contain macrophages and polymorphonuclear cells (up to 10%) as an impurity. The number of the cells forming the rosettes was corrected by this value each case.

[2] = test system: lymphocytes of healthy persons; assay: Active E-rosette test, lymphocytes of healthy persons; type: cell-based, human; details: for E-rosette forming activity, percentage amount of active lymphocytes: n = 4
Experimental: as §1

[3] = test system: plaque forming spleen cells (PFC); assay: Effect on plaque forming spleen cells (PFC); type: in vivo, H. Wistar rats; details: for Ratio of the plaque formation produced by treated and untreated (control) animals: new-born animals
Experimental: (2) The number of the cells producing a specific antibody was determined by the method of Canningham Handbook of Experimental Immunology (editor: D. M. Weir), 2nd Volume, p. 285, Blackwell, Oxford-London (1978). According to this method from the spleen cells of immunized animals, sheep erythrocyte suspension and complement a homogenous suspension was prepared and it was placed into a chamber suitable for forming a single cell layer. Around the spleen cells lytic areolas are formed, the number of which is identical with the number of the cells producing a specific antibody (plaque forming cells, PFC).
The test animals, not later than 12 hour after birth, were given a single i.p. dose of the test material. According to the method (1) three different doses of each substance were tested. On the 7th day after immunization the plaque formation of the spleen cells isolated from the animals was examined.

[4] = test system: antibody production against sheep erythrocyte; assay: Effect on antibody production (Ceglowski's method), agglutination titer; type: in vivo, H. Wistar rats
Experimental: (1) The effect on antibody production was tested according to Ceglowski's method [Ceglowski: Ann. N.Y. Acad. Sci. 249, 343 (1975)]. New-born H. Wistar rats were treated with single 25 μlit. doses of 4×10^-3 -4×10^-7 moles/lit. of the test material (9 animals for each dose) at the latest at the 12th hour after birth. The 14-day animals were then immunized with a sheep erythrocyte suspension administering 0.5 ml. of a 5% sheep erythrocyte suspension each animal intraperitoneally. On the 7th day after immunization the animals were decapitated. The blood of three animals was mixed and from the serum obtained (after centrifuging at 3000 r.p.m. for 10 minutes) the titers for antibodies were determined by the method of Takatsy [Takatsy: Acta Microbiol. Acad. Sci. Hung. 3, 191 (1955)]. The results are expressed in agglutination titers. The titer corresponds to the […] dilution of the serum in which agglutination can be observed.

[5] = test system: antibody production against sheep erythrocyte; assay: as above; type: in vivo, H. Wistar rats; remark: listed apart in the source
[6] = single i.p. dose 1.0·10^-4 mmoles
[7] = single i.p. dose 1.0·10^-6 mmoles
[8] = single 25 μlit. dose of 4·10^-3 moles/liter to new-born rats
[9] = single 25 μlit. dose of 4·10^-5 moles/liter to new-born rats
[10] = single 25 μlit. dose of 4·10^-7 moles/liter to new-born rats
[11] = single i.p. dose 1.0·10^-8 mmoles

Row | Compound | E-rosette forming activity, percentage amount of active lymphocytes ([1]; 10^-3 moles/liter) | E-rosette forming activity, percentage amount of active lymphocytes ([1]; 10^-5 moles/liter) | E-rosette forming activity, percentage amount of active lymphocytes ([1]; 10^-7 moles/liter) | E-rosette forming activity, percentage amount of active lymphocytes ([1]; 10^-9 moles/liter) | E-rosette forming activity, percentage amount of active lymphocytes ([1]; 10^-11 moles/liter) | E-rosette forming activity, percentage amount of active lymphocytes ([2]; 10^-3 moles/liter) | E-rosette forming activity, percentage amount of active lymphocytes ([2]; 10^-5 moles/liter) | E-rosette forming activity, percentage amount of active lymphocytes ([2]; 10^-7 moles/liter) | E-rosette forming activity, percentage amount of active lymphocytes ([2]; 10^-9 moles/liter) | E-rosette forming activity, percentage amount of active lymphocytes ([2]; 10^-11 moles/liter) | In vivo effect on plaque forming spleen cells (in words) ([3]; in all tested doses) | Ratio of the plaque formation produced by treated and untreated (control) animals [3, 6] | Ratio of the plaque formation produced by treated and untreated (control) animals [3, 7] | Effect on E-rosette forming activity (in words) ([2]; 10^-11 moles/lit.) | In vivo effect on the antibody production (in words) ([4]; 4.10^-7 moles/lit.) | Antibody production, agglutination titer (X ± S.D.) [4, 8] | Antibody production, agglutination titer (X ± S.D.) [4, 9] | Antibody production, agglutination titer (X ± S.D.) [4, 10] | Ratio of the plaque formation produced by treated and untreated (control) animals [3, 11] | also measured
1 | CC(C)[C@H](NC(=O)[C@H](CC(=O)O)NC(=O)[C@H](CCCCN)NC(=O)[C@H](C)N)C(=O)O [Ala--Lys--Asp--Val, Ala-Lys-Asp-Val] (H-AKDV-OH) | 25.3% | 22.8% | 22.5% | 23.9% | 20.3% | 43.4% | 34.9% | 47.5% | 39.1% | 36.2% | significant inhibiting activity | 0.04 | 0.01 |  |  |  |  |  |  | Effect on E-rosette forming activity (in words) ([2]; 10^-7 moles/lit.): significant stimulating effect
2 | C[C@H](NC(=O)[C@H](CC(=O)O)NC(=O)[C@H](CCCCN)NC(=O)[C@@H](N)CCCNC(=N)N)C(=O)O [Arg--Lys--Asp--Ala, Arg-Lys-Asp-Ala] (H-RKDA-OH) | 28.6% | 24.5% | 25.8% | 25.3% | 27.9% | 41.2% | 39.6% | 40.8% | 36.4% | 40.5% | substantial increase | 4.9 | 1.9 | stimulating effect | significant stimulating activity | 10.5 ± 1.5 | 11.5 ± 0.9 | 12.0 ± 0 | 3.0 | 
3 | CC(C)[C@H](NC(=O)[C@H](CC(=O)O)NC(=O)[C@H](CCCCN)NC(=O)[C@@H](N)CCCNC(=N)N)C(N)=O [Arg--Lys--Asp--Val--NH2, Arg-Lys-Asp-Val-NH2] (H-RKDV-NH2) | 31.5% | 29.8% | 26.9% | 34.8% | 28.2% | 29.0% | 33.8% | 35.1% | 26.6% | 38.1% |  | 0.3 | 0.52 | stimulating effect |  |  |  |  | 2.7 | Effect on E-rosette forming activity (in words) ([1]; 10^-9 moles/lit.): significantly stimulated; Antibody production, agglutination titer (X ± S.D.) ([4]; single 25 μlit. dose of 4·10^-4 moles/liter to new-born rats): 5.2 ± 2.2; Antibody production, agglutination titer (X ± S.D.) ([4]; single 25 μlit. dose of 4·10^-6 moles/liter to new-born rats): 6.2 ± 2.0; In vivo effect on plaque forming spleen cells (in words) ([3]; in lower doses): about two-times increase; In vivo effect on the antibody production (in words) ([5]; 4.10^-8 moles/lit.): significant stimulating activity; Antibody production, agglutination titer (X ± S.D.) ([5]; single 25 μlit. dose of 4·10^-8 moles/liter to new-born rats): 6.8 ± 0.8
4 | COC(=O)[C@@H](NC(=O)[C@H](CC(=O)O)NC(=O)[C@H](CCCCN)NC(=O)[C@@H](N)CCCNC(=N)N)C(C)C [Arg--Lys--Asp--Val--OMe, Arg-Lys-Asp-Val-OMe] (H-RKDV-OMe) | 31.2% | 30.8% | 32.4% | 27.9% | 26.5% | 26.8% | 27.2% | 29.4% | 24.8% | 23.8% |  |  |  |  |  | 6.0 ± 1.7 | 4.5 ± 0.5 | 5.5 ± 2.6 |  | Effect on E-rosette forming activity (in words) ([1]; 10^-7 moles/lit.): stimulating effect
5 | CC(C)[C@H](NC(=O)[C@H](CC(=O)O)NC(=O)[C@H](CCCCN)NC(=O)[C@H](CCCNC(=N)N)NC(=O)[C@@H]1CCC(=O)N1)C(=O)O [Glp--Arg--Lys--Asp--Val, Glp-Arg-Lys-Asp-Val] ([pGlu]RKDV-OH) | 22.8% | 23.2% | 21.4% | 19.4% | 20.4% |  |  |  |  |  |  |  |  |  | inhibiting activity | 9.0 ± 2.6 | 8.3 ± 0.6 | 7.2 ± 1.3 |  | 
6 | CC(C)[C@H](NC(=O)[C@H](CC(=O)O)NC(=O)[C@H](CCCCN)NC(=O)[C@H](CCCNC(=N)N)NC(=O)[C@@H]1CCC(=O)N1)C(=O)N[C@@H](Cc1ccc(O)cc1)C(=O)O [Glp--Arg--Lys--Asp--Val--Tyr, Glp-Arg-Lys-Asp-Val-Tyr] ([pGlu]RKDVY-OH) | 24.1% | 22.7% | 22.6% | 26.6% | 24.9% | 29.9% | 22.5% | 29.4% | 25.5% | 29.9% |  |  |  |  |  |  |  |  |  | In vivo effect on the antibody production (in words) ([4]; 2.10^-3 moles/lit.): inhibiting activity; Antibody production, agglutination titer (X ± S.D.) ([4]; column 4·10^-3 moles/liter, footnote x: concentration is half of the head value): 3.0 ± 1.0; Antibody production, agglutination titer (X ± S.D.) ([4]; column 4·10^-5 moles/liter, footnote x: concentration is half of the head value): 5.2 ± 0.8; Antibody production, agglutination titer (X ± S.D.) ([5]; footnote y: concentration 2·10^-1 moles/liter): 5.5 ± 0.6
